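Briefly, cells in 96-well plates were exposed to five compound concentrations for 48 h, and endpoints were estimated by linear interpolation. GI50: concentration for 50% inhibition of growth.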 Activity calls are given as the source filed them. No stated cut-off is given here; in the data, active = GI50 up to about 1.1 µM and inactive = higher.
How the values were obtained:
Assay in all cases: inhibition of tumour cell growth, NCI panel, 48 h
[1] = test system: LXFL 529
[2] = test system: SF-268
[3] = test system: RPMI-8226
[4] = test system: SK-MEL-28
[5] = test system: UO-31
[6] = test system: HCT-116
[7] = test system: COLO 205
[8] = test system: MOLT-4
[9] = test system: NCI-H23
[10] = test system: SW-620
[11] = test system: A549
[12] = test system: HL-60
[13] = test system: SN12C
[14] = test system: NCI-H460
[15] = test system: ACHN
[16] = test system: HCC 2998
[17] = test system: MDA-MB-231
[18] = test system: Hs-578T
[19] = test system: A498
[20] = test system: DU-145

Measured: GI50

NC1=NNC(=O)c2nnc3c(C(=O)O)cnn3c2S1
inactive: [1] > 100 µM | [2] > 100 µM | [3] > 100 µM | [4] > 100 µM | [5] > 100 µM | [6] > 100 µM | [7] > 100 µM | [8] > 100 µM | [9] > 100 µM | [10] > 100 µM | [11] > 100 µM | [12] > 100 µM | [13] > 100 µM

O=c1cc(-c2ccccc2)[nH]c2c(F)ccc(F)c12
inactive: [1] 68.5 µM | [2] > 100 µM | [3] 31.1 µM | [4] 59.8 µM | [14] 32.5 µM | [5] 88.3 µM | [15] > 100 µM | [6] 40.6 µM | [7] 48.1 µM | [8] 46.2 µM | [9] > 100 µM | [10] 35.3 µM | [11] 37.9 µM | [12] 31.8 µM | [13] 63.5 µM

O=C1CCSC2=C1SCc1sccc12
inactive: [1] > 100 µM | [2] > 100 µM | [3] 79.3 µM | [4] > 100 µM | [14] > 100 µM | [5] > 100 µM | [7] > 100 µM | [8] > 100 µM | [9] > 100 µM | [16] > 100 µM | [10] > 100 µM | [11] > 100 µM | [12] > 100 µM | [13] > 100 µM

O=C(Cc1ccc(Cl)c(Cl)c1)NCCCN1CCN(CCCN2CCCCC2)CC1
inactive: [17] 12 µM | [18] 14.1 µM | [2] 19.5 µM | [3] 2.71 µM | [4] 2.56 µM | [14] 16.6 µM | [5] 1.84 µM | [19] 16.4 µM | [15] 27.2 µM | [6] 16.3 µM | [7] 13.2 µM | [8] 10.9 µM | [9] 19.8 µM | [16] 2.89 µM | [20] 40.5 µM | [10] 19.9 µM | [11] 20.6 µM | [12] 17.8 µM | [13] 18.8 µM

COc1ccccc1CC1(O)OC(=O)c2ccccc21 (stereo not given)
inactive: [17] > 100 µM | [18] > 100 µM | [2] > 100 µM | [3] > 100 µM | [4] > 100 µM | [14] > 100 µM | [5] > 100 µM | [19] > 100 µM | [15] > 100 µM | [6] > 100 µM | [7] > 100 µM | [8] > 100 µM | [9] > 100 µM | [16] > 100 µM | [20] > 100 µM | [10] > 100 µM | [11] > 100 µM | [12] > 100 µM | [13] > 100 µM
